Measured values reported in patent US5703109A, “Selective aromatase inhibiting compounds” (Oy; Orion-yhtyma, priority 1992, dated 1997).

Experiments:
[1] = molecular target: desmolase; assay: Inhibition of desmolase (cholesterol side chain cleavage, SCC, activity); type: biochemical; conditions: mitochondrial fraction from human placenta or bovine adrenals, 37° C., 30 min; read-out: DESMOLASE IC-50
Experimental: Incubations were carried out in 1,5 ml Eppendorf plastic robes, and an Eppendoff shaker, centrifuge and incubator were used as a unit. […] Controls contained all the above substances but the enzyme preparation was inactivated prior to the incubation by the addition of 900 μl of methanol. The mitochondrial fraction (1 mg protein) from human placenta or bovine adrenals was used as a source of enzyme. After 30 min incubation at 37° C., the reaction was terminated by the addition of 900 μl of methanol; 1500 dpm of marker ^14 C-4-pregnenolone was added to each incubate and the robes were vigorously shaken. […] The column was washed with one ml of 75% methanol and then with 3 ml of 80% methanol The 80% methanol eluate was run into the counting vial and 10 ml of scintillation liquid was added. Radioactivity was counted using a double-label program on a liquid scintillation counter (LKB RackBeta).
In inhibition experiments, the substance (final concentration range from 1 to 1000 μM) was added into incubation mixture in a volume of 10-20 μl, usually as methanol or ethanol solution. The same volume of the solute was added into control incubation vial.

[2] = molecular target: T1, human aromatase (Homo sapiens, UniProt P11511); assay: Inhibition of human aromatase (3H2O release from 1,2[3H]-androstene-3,17-dione, human placenta microsomes); type: biochemical; conditions: human placental microsomes, 37° C., 40 min; read-out: AROMATASE IC-50
T1 construct: The enzyme preparation was used without further purification; from tissue; host or cells: human placenta, microsomal fraction (100000×g precipitate)
T1 sequence (P11511 1-503): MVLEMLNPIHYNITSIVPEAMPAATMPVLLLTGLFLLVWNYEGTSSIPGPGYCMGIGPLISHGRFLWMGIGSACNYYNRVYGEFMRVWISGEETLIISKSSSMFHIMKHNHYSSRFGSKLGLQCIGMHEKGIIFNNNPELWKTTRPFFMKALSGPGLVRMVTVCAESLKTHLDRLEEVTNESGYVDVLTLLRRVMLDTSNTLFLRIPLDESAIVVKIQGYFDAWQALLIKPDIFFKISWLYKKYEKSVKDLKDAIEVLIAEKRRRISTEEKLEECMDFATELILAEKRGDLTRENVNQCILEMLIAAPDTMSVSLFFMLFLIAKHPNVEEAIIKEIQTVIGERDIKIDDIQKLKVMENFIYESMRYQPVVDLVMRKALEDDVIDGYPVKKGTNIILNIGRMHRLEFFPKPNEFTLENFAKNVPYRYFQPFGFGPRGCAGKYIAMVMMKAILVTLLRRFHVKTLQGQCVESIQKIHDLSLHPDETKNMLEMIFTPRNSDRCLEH
Experimental: Human aromatase enzyme was used. The enzyme was prepared from human placenta, which is rich of the enzyme. Microsomal fraction (100000×g precipitate) was prepared by centrifugation. The enzyme preparation was used without further purification. Test compounds listed in Table 1 were added together with 100000 dpm of 1,2[^3 H]-androstene-3,17-dione and NADPH generating system. The concentrations of the test compounds were 0.001; 0.01; 0.1 and 1.0 mM. The incubation was carried out at 37° C. for 40 min. […] Radioactivity was counted by a liquid scintillation counter. Aromatase inhibition was evaluated by comparing the ^3 H2 O-radioactivity of inhibitor treated samples to controls containing no inhibitor. IC-50 values were calculated as concentrations which inhibited the enzyme activity 50%.

[3] = Acute toxicity, LD50, oral, in mice; type: in vivo; conditions: young adult female NMRI mice
Excerpt: […]. The administration of the test compound was oral.

IC50 [1] [µM]	IC50 [2] [µM]	Compound	Acute toxicity (LD50 determination): tolerability of the highest dose tested ([3]; highest dose tested 400 mg/kg)	Acute toxicity (LD50 determination): adverse effects ([3]; up to 400 mg/kg)
172	0.9	N#Cc1ccc(C(C(=O)CCc2ccc(F)cc2)n2cncn2)cc1 (centres unmarked) [Compound 7, 1-[1-(-4-cyanophenyl)-4-(4-fluorophenyl)-2-oxobutyl]-1,2,4-triazole]	–	–
> 1000	0.95	N#Cc1ccc(C(C(O)CCc2ccc(F)cc2)n2cncn2)cc1 (single isomer, unassigned) [Compound 5, 1-[1-(4-cyanophenyl)-4-(4-fluorophenyl)-2-hydroxybutyl]-1,2,4-triazole, diastereomer a + d]	–	–
49	0.18	N#Cc1ccc(C(C(O)CCc2ccc(F)cc2)n2ccnc2)cc1 (single isomer, unassigned) [Compound 2, 1-[1-(4-cyanophenyl)-4-(4-fluorophenyl)-2-hydroxybutyl]-1H-imidazole, diastereomer a + d]	–	–
380	0.3	N#Cc1ccc(C(CC(O)c2ccc(F)cc2)n2cncn2)cc1 (centres unmarked) [Compound 6, 1-[1-(4-cyanophenyl)-3-(4-fluorophenyl)-3-hydroxypropyl]-1,2,4-triazole]	–	–
300	0.28	N#Cc1ccc(C(O)(CCc2ccc(F)cc2)c2cncs2)cc1 (centres unmarked) [Compound 9, 5-[1-(4-cyanophenyl)-3-(4-fluorophenyl)-1-hydroxypropyl]thiazole]	–	–

Compound	IC50 [1] [µM]	IC50 [2] [µM]	Acute toxicity (LD50 determination): tolerability of the highest dose tested ([3]; highest dose tested 400 mg/kg)	Acute toxicity (LD50 determination): adverse effects ([3]; up to 400 mg/kg)
N#Cc1ccc(C(CCCc2ccc(F)cc2)n2ccnc2)cc1 (centres unmarked) [Compound 1, 1-[1-(4-cyanophenyl)-4-(4-fluorophenyl)butyl]-1H-imidazole]	17	–	–	–
N#Cc1ccc(C(C(O)Cc2ccc(F)cc2)n2cncn2)cc1 (single isomer, unassigned) [Compound 4, 1-[1-(4-cyanophenyl)-3-(4-fluorophenyl)-2-hydroxypropyl]-1,2,4-triazole, diastereomer a + d]	> 1000	0.26	well tolerated	No adverse effects were seen
N#Cc1ccc(C(=CCCc2ccc(F)cc2)n2cncn2)cc1 (single isomer, unassigned; isomer b) [Compound 3, 1-[1-(4-cyanophenyl)-4-(4-fluorophenyl)-1-butenyl]-1,2,4-triazole, isomer b]	300	–	–	–
N#Cc1ccc(C(=CCc2ccc(F)cc2)n2cncn2)cc1 (single isomer, unassigned; isomer b) [Compound 8, 1-[1-(4-cyanophenyl)-3-(4-fluorophenyl)-1-propenyl]-1,2,4-triazole, isomer b]	165	–	–	–
